In article doi:10.1101/2025.05.08.652848v1 (biorxiv, 2025) one finds EC50 and IC50 data, which are given here for five compounds.

Holding throughout (type): binding
The target of experiment [1] is T1, RXRA:PPARG LBD heterodimer (Homo sapiens, UniProt P37231).
T1 sequence (P37231 231-505): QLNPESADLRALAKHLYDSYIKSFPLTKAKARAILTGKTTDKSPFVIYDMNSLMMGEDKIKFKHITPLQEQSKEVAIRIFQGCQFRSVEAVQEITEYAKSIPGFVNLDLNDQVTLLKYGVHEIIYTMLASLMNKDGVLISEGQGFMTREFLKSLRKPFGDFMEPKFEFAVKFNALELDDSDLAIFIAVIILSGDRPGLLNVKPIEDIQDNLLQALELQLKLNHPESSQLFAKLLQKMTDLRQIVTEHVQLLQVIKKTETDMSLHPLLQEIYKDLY
T1 sequence (P19793 228-462 partner): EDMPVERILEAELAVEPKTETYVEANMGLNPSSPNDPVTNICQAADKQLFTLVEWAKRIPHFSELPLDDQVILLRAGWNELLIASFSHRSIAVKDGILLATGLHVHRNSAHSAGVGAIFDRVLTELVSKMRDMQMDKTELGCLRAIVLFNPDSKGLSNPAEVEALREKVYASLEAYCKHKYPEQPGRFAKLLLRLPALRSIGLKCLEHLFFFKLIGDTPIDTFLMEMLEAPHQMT
Description: TR-FRET NCOR1 ID2 peptide recruitment. (TR-FRET usually uses a lanthanide donor and a delayed reading to cut background.)

The target in experiment [2] is T1, RXRA:PPARG LBD heterodimer. Briefly: TR-FRET MED1 LxxLL peptide blockade.
Experiment [3] concerns the target T2, PPARD/RXRA LBD heterodimer (Homo sapiens, UniProt Q03181).
T2 sequence (Q03181 171-441 limits assumed): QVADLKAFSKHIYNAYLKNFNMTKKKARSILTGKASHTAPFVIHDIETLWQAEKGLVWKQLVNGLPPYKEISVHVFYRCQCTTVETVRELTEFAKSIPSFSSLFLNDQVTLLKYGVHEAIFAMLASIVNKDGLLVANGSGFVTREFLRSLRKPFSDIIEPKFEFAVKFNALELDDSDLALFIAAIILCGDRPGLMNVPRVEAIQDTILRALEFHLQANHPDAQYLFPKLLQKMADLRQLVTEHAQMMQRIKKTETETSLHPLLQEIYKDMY
T2 sequence (P19793 228-462 partner): T1 sequence (P19793 228-462 partner)
Description: TR-FRET NCOR1 ID2 peptide recruitment.

The target of experiment [4] is T3, PPARA/RXRA LBD heterodimer (Homo sapiens, UniProt Q07869).
T3 sequence (Q07869 196-468 limits assumed): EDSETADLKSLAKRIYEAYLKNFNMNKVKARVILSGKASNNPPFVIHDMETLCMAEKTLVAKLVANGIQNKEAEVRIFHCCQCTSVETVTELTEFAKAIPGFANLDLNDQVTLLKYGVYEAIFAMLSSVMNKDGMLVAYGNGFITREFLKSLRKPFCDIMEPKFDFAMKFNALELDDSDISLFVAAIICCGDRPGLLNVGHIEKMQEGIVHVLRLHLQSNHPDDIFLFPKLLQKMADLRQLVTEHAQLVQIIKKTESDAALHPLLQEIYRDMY
T3 sequence (P19793 228-462 partner): T1 sequence (P19793 228-462 partner)
Description: TR-FRET NCOR1 ID2 peptide recruitment.

On to `N#Cc1ccc(Br)c(-c2cc(=O)c3c(F)cc(F)cc3[nH]2)c1` [FTX-6713, 4-bromo-3-(5,7-difluoro-4-oxo-1,4-dihydroquinolin-2-yl)benzonitrile], for which the midpoint of the response in experiment [1], the EC50, lay at 70 ± 8 nM.
`N#Cc1ccc(Cl)c(-c2cc(=O)c3c(F)cc(F)cc3[nH]2)c1` [FTX-6746, 4-Chloro-3-(5,7-difluoro-4-oxo-1,4-dihydroquinolin-2-yl)benzonitrile]: the EC50 (as a rule, the concentration that produces a half-maximal response) in experiment [1] is 690 ± 70 nM. In addition, the IC50 (in general, the concentration that gives 50% inhibition) in experiment [2] is 740 ± 160 nM.
For `N#Cc1ccc(F)c(-c2cc(=O)c3c(F)cc(F)cc3[nH]2)c1` [FTX-6822, 3-(5,7-difluoro-4-oxo-1,4-dihydro-2-quinolyl)-4-fluorobenzonitrile], a half-maximal response in experiment [1] (EC50) required 5000 nM.
For the compound `CS(=O)(=O)c1ccc(C#N)cc1-c1cc(=O)c2c(F)cc(F)cc2[nH]1` [FX-909, 3-(5,7-difluoro-4-oxo-1,4-dihydroquinolin-2-yl)-4-(methylsulfonyl)benzonitrile], the values for the EC50 in experiment [1], in experiment [3] and in experiment [4] were 200 ± 30 nM, above 100000 nM and above 100000 nM, respectively.
In the case of `O=C(Nc1ccccc1)c1cc([N+](=O)[O-])ccc1Cl` [GW9662], the IC50 in experiment [2] stood at 97 ± 38 nM.
